# Laboratory results: the supplement of paper PMC10307832
# How the values were obtained:
# Assay in all cases: relative viability (nuclei count vs DMSO), 5 days (fraction); higher = more cells survive
# A-427 = tested on: A-427
# How it was run: (§1)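 One day after seeding in 1536-well plates, lung cancer cell lines were dosed by pin tool. Dosing was either single-drug or a fixed anchor-drug dose plus five library-drug doses (not always all listed) in √10 steps. After 5 days, nuclei were stained in one fix-and-stain step and counted on 4× images, and relative viability is the nuclei count of treated wells over that of vehicle wells, given as the median of duplicate plates.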
# ABC-1 = tested on: ABC-1
# How it was run: as §1
# BEN = tested on: BEN
# How it was run: as §1
# COR-L23 = tested on: COR-L23
# How it was run: as §1
# EKVX = tested on: EKVX
# How it was run: as §1
# HCC-78 = tested on: HCC-78
# How it was run: as §1
# HOP-62 = tested on: HOP-62
# How it was run: as §1
# LC-2-ad = tested on: LC-2-ad
# How it was run: as §1
# LOU-NH91 = tested on: LOU-NH91
# How it was run: as §1
# LXF-289 = tested on: LXF-289
# How it was run: as §1
# NCI-H1650 = tested on: NCI-H1650
# How it was run: as §1
# NCI-H1734 = tested on: NCI-H1734
# How it was run: as §1
# NCI-H1793 = tested on: NCI-H1793
# How it was run: as §1
# NCI-H1993 = tested on: NCI-H1993
# How it was run: as §1
# NCI-H2023 = tested on: NCI-H2023
# How it was run: as §1
# NCI-H2347 = tested on: NCI-H2347
# How it was run: as §1
# NCI-H358 = tested on: NCI-H358
# How it was run: as §1
# NCI-H441 = tested on: NCI-H441
# How it was run: as §1
# NCI-H520 = tested on: NCI-H520
# How it was run: as §1
# NCI-H522 = tested on: NCI-H522
# How it was run: as §1
# NCI-H596 = tested on: NCI-H596
# How it was run: as §1
# SW 1573 = tested on: SW 1573
# How it was run: as §1
smiles,measurement,setting,value
Oc1nc(-c2ccc(C(F)(F)F)cc2)nc2c1CSCC2 [XAV939] + Cc1nc(Nc2ncc(C(=O)Nc3c(C)cccc3Cl)s2)cc(N2CCN(CCO)CC2)n1 [Dasatinib] (partner 0.075 µM),relative viability,A-427; first compound 0.08 µM,0.838
same,relative viability,A-427; first compound 0.253 µM,0.677
same,relative viability,A-427; first compound 0.8 µM,0.667
same,relative viability,A-427; first compound 2.53 µM,0.557
same,relative viability,ABC-1; first compound 0.08 µM,0.546
same,relative viability,ABC-1; first compound 0.253 µM,0.534
same,relative viability,ABC-1; first compound 0.8 µM,0.467
same,relative viability,ABC-1; first compound 2.53 µM,0.415
same,relative viability,BEN; first compound 0.08 µM,0.294
same,relative viability,BEN; first compound 0.253 µM,0.299
same,relative viability,BEN; first compound 0.8 µM,0.32
same,relative viability,BEN; first compound 2.53 µM,0.287
same,relative viability,COR-L23; first compound 0.08 µM,0.461
same,relative viability,COR-L23; first compound 0.253 µM,0.424
same,relative viability,COR-L23; first compound 0.8 µM,0.505
same,relative viability,COR-L23; first compound 2.53 µM,0.444
same,relative viability,EKVX; first compound 0.08 µM,0.444
same,relative viability,EKVX; first compound 0.8 µM,0.486
same,relative viability,EKVX; first compound 2.53 µM,0.228
same,relative viability,HCC-78; first compound 0.08 µM,0.37
same,relative viability,HCC-78; first compound 0.253 µM,0.398
same,relative viability,HCC-78; first compound 0.8 µM,0.338
same,relative viability,HCC-78; first compound 2.53 µM,0.399
same,relative viability,HOP-62; first compound 0.08 µM,0.738
same,relative viability,HOP-62; first compound 0.253 µM,0.659
same,relative viability,HOP-62; first compound 0.8 µM,0.621
same,relative viability,HOP-62; first compound 2.53 µM,0.396
same,relative viability,LC-2-ad; first compound 0.08 µM,0.729
same,relative viability,LC-2-ad; first compound 0.253 µM,0.446
same,relative viability,LC-2-ad; first compound 0.8 µM,0.553
same,relative viability,LC-2-ad; first compound 2.53 µM,0.595
same,relative viability,LOU-NH91; first compound 0.08 µM,0.519
same,relative viability,LOU-NH91; first compound 0.253 µM,0.5
same,relative viability,LOU-NH91; first compound 0.8 µM,0.501
same,relative viability,LOU-NH91; first compound 2.53 µM,0.526
same,relative viability,LXF-289; first compound 0.08 µM,0.179
same,relative viability,LXF-289; first compound 0.253 µM,0.167
same,relative viability,LXF-289; first compound 0.8 µM,0.178
same,relative viability,LXF-289; first compound 2.53 µM,0.139
same,relative viability,NCI-H1650; first compound 0.08 µM,0.331
same,relative viability,NCI-H1650; first compound 0.253 µM,0.323
same,relative viability,NCI-H1650; first compound 0.8 µM,0.263
same,relative viability,NCI-H1650; first compound 2.53 µM,0.288
same,relative viability,NCI-H1734; first compound 0.08 µM,0.501
same,relative viability,NCI-H1734; first compound 0.253 µM,0.476
same,relative viability,NCI-H1734; first compound 0.8 µM,0.419
same,relative viability,NCI-H1734; first compound 2.53 µM,0.357
same,relative viability,NCI-H1793; first compound 0.08 µM,0.379
same,relative viability,NCI-H1793; first compound 0.253 µM,0.339
same,relative viability,NCI-H1793; first compound 0.8 µM,0.399
same,relative viability,NCI-H1793; first compound 2.53 µM,0.419
same,relative viability,NCI-H1993; first compound 0.08 µM,0.52
same,relative viability,NCI-H1993; first compound 0.253 µM,0.52
same,relative viability,NCI-H1993; first compound 0.8 µM,0.557
same,relative viability,NCI-H1993; first compound 2.53 µM,0.535
same,relative viability,NCI-H2023; first compound 0.08 µM,0.512
same,relative viability,NCI-H2023; first compound 0.253 µM,0.397
same,relative viability,NCI-H2023; first compound 0.8 µM,0.334
same,relative viability,NCI-H2023; first compound 2.53 µM,0.336
same,relative viability,NCI-H2347; first compound 0.08 µM,0.258
same,relative viability,NCI-H2347; first compound 2.53 µM,0.335
same,relative viability,NCI-H358; first compound 0.08 µM,0.16
same,relative viability,NCI-H358; first compound 0.253 µM,0.166
same,relative viability,NCI-H358; first compound 0.8 µM,0.175
same,relative viability,NCI-H358; first compound 2.53 µM,0.172
same,relative viability,NCI-H441; first compound 0.08 µM,0.602
same,relative viability,NCI-H441; first compound 0.253 µM,0.66
same,relative viability,NCI-H441; first compound 0.8 µM,0.779
same,relative viability,NCI-H441; first compound 2.53 µM,0.536
same,relative viability,NCI-H520; first compound 0.08 µM,0.179
same,relative viability,NCI-H520; first compound 0.253 µM,0.17
same,relative viability,NCI-H520; first compound 0.8 µM,0.152
same,relative viability,NCI-H520; first compound 2.53 µM,0.193
same,relative viability,NCI-H522; first compound 0.08 µM,0.982
same,relative viability,NCI-H522; first compound 0.253 µM,0.812
same,relative viability,NCI-H522; first compound 0.8 µM,0.465
same,relative viability,NCI-H522; first compound 2.53 µM,0.779
same,relative viability,NCI-H596; first compound 0.08 µM,0.584
same,relative viability,NCI-H596; first compound 0.253 µM,0.549
same,relative viability,NCI-H596; first compound 0.8 µM,0.708
same,relative viability,NCI-H596; first compound 2.53 µM,0.563
same,relative viability,SW 1573; first compound 0.08 µM,0.605
same,relative viability,SW 1573; first compound 0.253 µM,0.506
same,relative viability,SW 1573; first compound 0.8 µM,0.43
same,relative viability,SW 1573; first compound 2.53 µM,0.241
